Data: patent publication US12605318B2, “Synergistic preservative/personal care composition containing an alkylene glycol ester” (priority 2020, dated 2026)

Experiments:
Experiment in all cases: Log reduction test of preservative agent and PGC in water matrices (drop plate), Example 3
Assay type in all cases: cell-based
[1] = test system: Aspergillus brasiliensis ATCC 16404/NCPF 2275; settings: PGC 0 ppm
Protocol: A test suspension was then created in tryptone buffered saline and adjusting the cell concentration to between 1×10^5 and 5×10^6 CFU/ml.
(§1) For each organism tested, 1 g of each preservative agent and PGC composition sample was prepared in sterile distilled water.
(§2) Each test sample was prepared by inoculating 1 ml aliquot of the test organism suspension into 1 ml of test sample.
(§3) The combination was then mixed. Each test mixture was sampled and tested at a defined time point after inoculation. The contact times used in this study are detailed in Table 7 above.
(§4) Upon reaching the specified contact time the test mixture was deactivated by adding a 100 μl of test mixture into 900 μl of neutralizing broth and the whole solution was mixed. The solution was left for 5 minutes to ensure the action of the preservative agent was effectively neutralized. Subsequent dilutions were prepared by adding 100 μl into 900 μl of neutralizing broth.
(§5) For each dilution prepare drop plates using appropriate agar and incubate at the appropriate temperature and time as in Table 5.
(§6) Used the drop plate technique.
(§7) Prepare agar plates by drying for 45 min-1 hour in a laminar flow at 20-25° C. Aliquot 0.025 ml drops onto the agar surface for each sample dilution. Allow drops to dry and incubate appropriately.
(§8) Plates were plates were prepared in sextuplicate for each for each sample dilution.
(§9) [formula] • Where • d1 is sum of viable count values from 6 drops • This was then multiplied by 40 to establish cfu/ml; Enumeration and Calculation of T (Test Sample)
(§10) [formula] • Where • d1 is sum of viable count values from 6 drops • This was then multiplied by 40 to establish cfu/ml;
(§11) To calculate the final log reduction the following calculation was used: Log 10 N−log 10 T=log reduction

[2] = test system: Pluralibacter gergoviae ATCC 33028/DSM 9245; settings: PGC 0 ppm; for Log reduction: contact time 5 min, water
Protocol: (§12) Bacterial and yeast strains were kept cryofrozen at −80° C.; before use, they were sub-cultured onto tryptone soya agar (Bacteria) and malt extract agar (yeast), and incubated at the appropriate temperature and time.
(§13) A test suspension was then created for each the bacteria and yeast by adding loopfuls of organism to sterile distilled water and adjusting the cell concentration to between 1×10^8 and 5×10^9 CFU/ml for bacteria, and 1×10^6 and 5×10^7 CFU/ml for yeast. This was achieved using the data from a calibration curve generated by a spectrophotometer at a wavelength of 620 nm.
as §1, §2, §3, §4, §5, §6, §7, §8, §9, §10, §11

[3] = test system: Candida albicans ATCC 10231/DSM 1386; settings: PGC 0 ppm; for Log reduction: contact time 5 min, water
Protocol: as §12, §13, §1, §2, §3, §4, §5, §6, §7, §8, §9, §10, §11

[4] = Didecyl dimethyl ammonium chloride 10 ppm
[5] = Didecyl dimethyl ammonium chloride 20 ppm
[6] = Didecyl dimethyl ammonium chloride 30 ppm
[7] = Didecyl dimethyl ammonium chloride 40 ppm
[8] = Didecyl dimethyl ammonium chloride 50 ppm

CC(O)C(=O)O (stereo not drawn) [Lactic Acid]
log reduction ([1]; Lactic Acid 100 ppm): 0.06 | log reduction ([1]; Lactic Acid 250 ppm): 0.12 | log reduction ([1]; Lactic Acid 500 ppm): 0.05 | log reduction ([1]; Lactic Acid 1000 ppm): 0.08 | log reduction ([1]; Lactic Acid 2500 ppm): 0.15 | log reduction ([2]; Lactic Acid 200 ppm): 0.00 | log reduction ([2]; Lactic Acid 500 ppm): 0.00 | log reduction ([2]; Lactic Acid 1000 ppm): 2.08 | log reduction ([2]; Lactic Acid 1500 ppm): 3.67 | log reduction ([2]; Lactic Acid 2000 ppm): 4.49

CCCCCCCCCCCCN(CCCN)CCCN [Bis (3-aminopropyl) dodecylamine]
Log reduction ([2]; Bis (3-aminopropyl) dodecylamine 5 ppm): 0.01 | Log reduction ([2]; Bis (3-aminopropyl) dodecylamine 12.5 ppm): 0.00 | Log reduction ([2]; Bis (3-aminopropyl) dodecylamine 25 ppm): 2.00 | Log reduction ([2]; Bis (3-aminopropyl) dodecylamine 50 ppm): >5.52 | Log reduction ([2]; Bis (3-aminopropyl) dodecylamine 100 ppm): >5.52 | Log reduction ([3]; Bis (3-aminopropyl) dodecylamine 10 ppm): 3.14 | Log reduction ([3]; Bis (3-aminopropyl) dodecylamine 20 ppm): >4.44 | Log reduction ([3]; Bis (3-aminopropyl) dodecylamine 40 ppm): >4.44 | Log reduction ([3]; Bis (3-aminopropyl) dodecylamine 60 ppm): >4.44 | Log reduction ([3]; Bis (3-aminopropyl) dodecylamine 80 ppm): >4.44

O=C([O-])c1ccccc1.[Na+] [Sodium Benzoate]
log reduction ([1]; Sodium Benzoate 10000 ppm): 0.17 | log reduction ([1]; Sodium Benzoate 20000 ppm): 0.50 | log reduction ([1]; Sodium Benzoate 30000 ppm): 0.70 | log reduction ([1]; Sodium Benzoate 40000 ppm): 1.32 | log reduction ([1]; Sodium Benzoate 50000 ppm): 1.34 | log reduction ([2]; Sodium Benzoate 2000 ppm): 0.00 | log reduction ([2]; Sodium Benzoate 5000 ppm): 0.00 | log reduction ([2]; Sodium Benzoate 10000 ppm): 0.00 | log reduction ([2]; Sodium Benzoate 20000 ppm): 0.46 | log reduction ([2]; Sodium Benzoate 30000 ppm): 1.40 | log reduction ([3]; Sodium Benzoate 10000 ppm): 0.00 | log reduction ([3]; Sodium Benzoate 20000 ppm): 0.00 | log reduction ([3]; Sodium Benzoate 30000 ppm): 0.00 | log reduction ([3]; Sodium Benzoate 40000 ppm): 0.00 | log reduction ([3]; Sodium Benzoate 50000 ppm): 2.06

CCCCCCCCCC[N+](C)(C)CCCCCCCCCC.[Cl-] [Didecyl dimethyl ammonium chloride]
log reduction [1, 4]: 1.01 | log reduction [1, 5]: 2.44 | log reduction [1, 6]: >4.05 | log reduction [1, 7]: >4.05 | log reduction [1, 8]: >4.05 | Log reduction [3, 4]: 1.07 | Log reduction [3, 5]: 1.01 | Log reduction [3, 6]: 1.33 | Log reduction [3, 7]: 2.43 | Log reduction [3, 8]: >4.52

OCc1ccccc1 [Benzyl Alcohol]
log reduction ([2]; Benzyl Alcohol 500 ppm): 0.00 | log reduction ([2]; Benzyl Alcohol 1000 ppm): 1.24 | log reduction ([2]; Benzyl Alcohol 2000 ppm): 1.57 | log reduction ([2]; Benzyl Alcohol 3000 ppm): 2.04 | log reduction ([2]; Benzyl Alcohol 4000 ppm): 4.04

CC(=O)C1C(=O)C=C(C)OC1=O (stereo not drawn) [Dehydroacetic acid]
log reduction ([3]; Dehydroacetic acid 1000 ppm): 0.00 | log reduction ([3]; Dehydroacetic acid 2000 ppm): 0.00 | log reduction ([3]; Dehydroacetic acid 3000 ppm): 0.00 | log reduction ([3]; Dehydroacetic acid 4000 ppm): 0.23 | log reduction ([3]; Dehydroacetic acid 5000 ppm): 0.52

O=c1[nH]sc2ccccc12 [Benzisothiazolinone]
log reduction ([1]; Benzisothiazolinone 50 ppm): −0.03 | log reduction ([1]; Benzisothiazolinone 100 ppm): 0.17 | log reduction ([1]; Benzisothiazolinone 250 ppm): 0.14 | log reduction ([1]; Benzisothiazolinone 500 ppm): 0.24 | log reduction ([1]; Benzisothiazolinone 1000 ppm): 0.28 | log reduction ([2]; Benzisothiazolinone 12.5 ppm): 0.00 | log reduction ([2]; Benzisothiazolinone 25 ppm): 0.00 | log reduction ([2]; Benzisothiazolinone 50 ppm): 0.00 | log reduction ([2]; Benzisothiazolinone 100 ppm): 0.03 | log reduction ([2]; Benzisothiazolinone 200 ppm): 1.21 | log reduction ([3]; Benzisothiazolinone 50 ppm): 0.00 | log reduction ([3]; Benzisothiazolinone 100 ppm): 0.00 | log reduction ([3]; Benzisothiazolinone 250 ppm): 0.00 | log reduction ([3]; Benzisothiazolinone 500 ppm): 0.00 | log reduction ([3]; Benzisothiazolinone 1000 ppm): 0.00

C/C=C/C=C/C(=O)O [Sorbic Acid]
log reduction ([2]; Sorbic acid 100 ppm): 0.00 | log reduction ([2]; Sorbic acid 200 ppm): 0.00 | log reduction ([2]; Sorbic acid 300 ppm): 0.00 | log reduction ([2]; Sorbic acid 400 ppm): 0.58 | log reduction ([2]; Sorbic acid 500 ppm): 1.38
